Results taken from US9169254B2, “Spiroimidazolone derivative” (Chugai Seiyaku Kabushiki Kaisha, priority 2009, dated 2015).

Biological target: T1, human PTH1 receptor (Homo sapiens, UniProt Q03431)
T1 sequence (Q03431 27-593): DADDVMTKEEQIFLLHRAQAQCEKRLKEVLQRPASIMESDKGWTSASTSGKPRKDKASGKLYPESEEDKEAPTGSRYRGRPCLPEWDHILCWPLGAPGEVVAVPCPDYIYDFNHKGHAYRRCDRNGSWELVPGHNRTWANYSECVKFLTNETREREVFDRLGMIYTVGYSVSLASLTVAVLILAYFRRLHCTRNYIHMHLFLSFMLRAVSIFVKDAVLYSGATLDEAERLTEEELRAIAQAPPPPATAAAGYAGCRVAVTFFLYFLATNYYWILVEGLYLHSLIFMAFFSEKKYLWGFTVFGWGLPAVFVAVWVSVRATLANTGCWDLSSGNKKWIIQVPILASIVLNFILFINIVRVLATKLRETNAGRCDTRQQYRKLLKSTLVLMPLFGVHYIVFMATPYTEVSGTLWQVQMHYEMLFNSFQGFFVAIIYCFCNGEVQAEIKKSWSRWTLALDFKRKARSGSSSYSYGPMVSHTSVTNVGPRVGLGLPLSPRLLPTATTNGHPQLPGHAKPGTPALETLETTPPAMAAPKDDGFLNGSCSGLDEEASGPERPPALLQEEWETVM
Assay: In vitro cAMP signal activity in HKRK-B7 cells (LLC-PK1 cells overexpressing the human PTH1 receptor)
Type: cell-based
Conditions: HKRK-B7 cells; compound at 1×10^−3 M; cAMP produced as percentage of that produced by hPTH(1-34) at 100 nM

Row | Compound | cAMP production activity (%)
1 | Cc1cc(N(C)C(N)=O)cc(C)c1CCS(=O)(=O)N1CCC2(CC1)N=C(c1cccc(OCCCC(F)(F)F)c1)NC2=O [Compound 1338, 1-[3,5-dimethyl-4-(2-{4-oxo-2-[3-(4,4,4-trifluoro-butoxy)-phenyl]-1,3,8-triaza-spiro[4.5]dec-1-ene-8-sulfonyl}-ethyl)-phenyl]-1-methyl-urea] | 84%
2 | Cc1cc(C(=O)N2CCN(C)CC2)ccc1/C=C/S(=O)(=O)N1CCC2(CC1)N=C(c1cccc(OC(F)(F)F)c1)NC2=O [Compound 527, 8-{(E)-2-[2-methyl-4-(4-methyl-piperazine-1-carbonyl)-phenyl]-ethenesulfonyl}-2-(3-trifluoromethoxy-phenyl)-1,3,8-triaza-spiro[4.5]dec-1-en-4-one] | 93%
3 | Cc1cc(C(=O)N2CCC(O)(CF)CC2)cc(C)c1/C=C/S(=O)(=O)N1CCC2(CC1)N=C(c1ccc(Cl)c(Cl)c1)NC2=O [Compound 1257, 2-(3,4-dichloro-phenyl)-8-{(E)-2-[4-(4-fluoromethyl-4-hydroxy-piperidine-1-carbonyl)-2,6-dimethyl-phenyl]-ethenesulfonyl}-1,3,8-triaza-spiro[4.5]dec-1-en-4-one] | 98%
4 | CC(=O)N(C)c1c(C)cc(CCS(=O)(=O)N2CCC3(CC2)N=C(C2CCC(C)CC2)NC3=O)cc1C (centres unmarked) [Compound 783, N-(2,6-dimethyl-4-{2-[2-(4-methyl-cyclohexyl)-4-oxo-1,3,8-triaza-spiro[4.5]dec-1-ene-8-sulfonyl]-ethyl}-phenyl)-N-methyl-acetamide] | 50%
5 | Cc1cc(N(C)C(N)=O)c(Cl)c(C)c1CCS(=O)(=O)N1CCC2(CC1)N=C(C1CCC(CC(F)(F)F)CC1)NC2=O (centres unmarked) [Compound 937, 1-[2-chloro-3,5-dimethyl-4-(2-{4-oxo-2-[4-(2,2,2-trifluoro-ethyl)-cyclohexyl]-1,3,8-triaza-spiro[4.5]dec-1-ene-8-sulfonyl}-ethyl)-phenyl]-1-methyl-urea] | 120%
6 | Cc1cc(C(=O)O)cc(C)c1/C=C/S(=O)(=O)N1CCC2(CC1)N=C(C1CCC(CCC(F)(F)F)CC1)NC2=O (centres unmarked) [Compound 547, 3,5-dimethyl-4-((E)-2-{4-oxo-2-[4-(3,3,3-trifluoro-propyl)-cyclohexyl]-1,3,8-triaza-spiro[4.5]dec-1-ene-8-sulfonyl}-vinyl)-benzoic acid] | 52%
7 | COc1ccc(-c2ccccc2CCS(=O)(=O)N2CCC3(CC2)N=C(C2CCCCC2)NC3=O)cn1 [Compound 339, 2-cyclohexyl-8-{2-[2-(6-methoxy-pyridin-3-yl)-phenyl]-ethanesulfonyl}-1,3,8-triaza-spiro[4.5]dec-1-en-4-one] | 66%
8 | O=C1NC(C2CCCCC2)=NC12CCN(S(=O)(=O)c1cccc(Cl)c1)CC2 [Compound 1, 8-(3-Chloro-benzenesulfonyl)-2-cyclohexyl-1,3,8-triaza-spiro[4.5]dec-1-en-4-one] | 42%
9 | Cc1cc(OC[C@H](O)CO)cc(C)c1/C=C/S(=O)(=O)N1CCC2(CC1)N=C(c1cccc(OCCCC(F)(F)C(F)(F)F)c1)NC2=O [Compound 1103, 8-{(E)-2-[4-((R)-2,3-Dihydroxy-propoxy)-2,6-dimethyl-phenyl]-ethenesulfonyl}-2-[3-(4,4,5,5,5-pentafluoro-pentyloxy)-phenyl]-1,3,8-triaza-spiro[4.5]dec-1-en-4-one] | 5.4%
10 | Cc1cc(C(=O)N2CCN(C(N)=O)CC2)cc(C)c1/C=C/S(=O)(=O)N1CCC2(CC1)N=C(c1cccc(OC(F)(F)F)c1)NC2=O [Compound 396, 4-(3,5-dimethyl-4-{(E)-2-[4-oxo-2-(3-trifluoromethoxy-phenyl)-1,3,8-triaza-spiro[4.5]dec-1-ene-8-sulfonyl]-vinyl}-benzoyl)-piperazine-1-carboxylic acid amide] | 85%
11 | Cc1cc(N2C(=O)CNC2=O)cc(C)c1/C=C/S(=O)(=O)N1CCC2(CC1)N=C(C1CCC(C(C)C)CC1)NC2=O (centres unmarked) [Compound 564, 3-(4-{(E)-2-[2-(4-isopropyl-cyclohexyl)-4-oxo-1,3,8-triaza-spiro[4.5]dec-1-ene-8-sulfonyl]-vinyl}-3,5-dimethyl-phenyl)-imidazolidine-2,4-dione] | 68%
12 | CO/N=C1\NC(c2cccc(OC(F)(F)F)c2)=NC12CCN(S(=O)(=O)CCc1ccc(C(=O)N(C)C)cc1C)CC2 [Compound 901, 4-{2-[4-[(Z)-methoxyimino]-2-(3-trifluoromethoxy-phenyl)-1,3,8-triaza-spiro[4.5]dec-1-ene-8-sulfonyl]-ethyl}-3,N,N-trimethyl-benzamide] | 1.9%
13 | Cc1cc(N2C(=O)CNC2=O)ccc1CCS(=O)(=O)N1CCC2(CC1)N=C(C1CCC(C(F)(F)F)CC1)NC2=O (centres unmarked) [Compound 947, 3-(3-methyl-4-{2-[4-oxo-2-(4-trifluoromethyl-cyclohexyl)-1,3,8-triaza-spiro[4.5]dec-1-ene-8-sulfonyl]-ethyl}-phenyl)-imidazolidine-2,4-dione] | 89%
14 | CC(=O)N(C)c1cc(C)c(CCS(=O)(=O)N2CCC3(CC2)N=C(CCCCCCCCC(F)(F)F)NC3=O)c(C)c1 [Compound 1047, N-(3,5-dimethyl-4-{2-[4-oxo-2-(9,9,9-trifluoro-nonyl)-1,3,8-triaza-spiro[4.5]dec-1-ene-8-sulfonyl]-ethyl}-phenyl)-N-methyl-acetamide] | 82%
15 | Cc1cc(C(=O)N2CCN(C(=O)N(C)C)CC2)ccc1CCS(=O)(=O)N1CCC2(CC1)N=C(c1cccc(C(F)(F)F)c1)NC2=O [Compound 382, 4-(3-methyl-4-{2-[4-oxo-2-(3-trifluoromethyl-phenyl)-1,3,8-triaza-spiro[4.5]dec-1-ene-8-sulfonyl]-ethyl}-benzoyl)-piperazine-1-carboxylic acid dimethylamide] | 36%
16 | Cc1cc(S(N)(=O)=O)ccc1CCS(=O)(=O)N1CCC2(CC1)N=C(c1cccc(C(F)(F)F)c1)NC2=O [Compound 291, 3-methyl-4-{2-[4-oxo-2-(3-trifluoromethyl-phenyl)-1,3,8-triaza-spiro[4.5]dec-1-ene-8-sulfonyl]-ethyl}-benzenesulfonamide] | 66%

Further lines, results first:

Row | cAMP production activity (%) | Compound
17 | 71% | [2H]C([2H])([2H])C([2H])([2H])Oc1cc(C2=NC3(CCN(S(=O)(=O)/C=C/c4c(C)cc(C(=O)N5CCC(O)(CF)CC5)cc4C)CC3)C(=O)N2)ccc1F [Compound 1272, 2-(3-[1,1,2,2,2-^2H5]ethoxy-4-fluoro-phenyl)-8-{(E)-2-[4-(4-fluoromethyl-4-hydroxy-piperidine-1-carbonyl)-2,6-dimethyl-phenyl]-ethenesulfonyl}-1,3,8-triaza-spiro[4.5]dec-1-en-4-one]
18 | 54% | CCCCc1ccc2cc1OCCCCCOCCN(C)C(=O)c1ccc(c(C)c1)CCS(=O)(=O)N1CCC3(CC1)N=C2NC3=O [Compound 1434]
19 | 30% | Cc1cc(N(C)c2c(N(C)C)c(=O)c2=O)cc(C)c1CCS(=O)(=O)N1CCC2(CC1)N=C([C@H]1CC[C@H](C)CC1)NC2=O [Compound 1369, 3-Dimethylamino-4-[(3,5-dimethyl-4-{2-[2-(4-methyl-cyclohexyl)-4-oxo-1,3,8-triaza-spiro[4.5]dec-1-ene-8-sulfonyl]-ethyl}-phenyl)-methyl-amino]-cyclobut-3-ene-1,2-dione]
20 | 116% | Cc1cc(C2=NC3(CCN(S(=O)(=O)/C=C/c4c(C)cc(C(=O)N5CCC(O)(CF)CC5)cc4C)CC3)C(=O)N2)ccc1OC(F)(F)F [Compound 1258, 8-{(E)-2-[4-(4-fluoromethyl-4-hydroxy-piperidine-1-carbonyl)-2,6-dimethyl-phenyl]-ethenesulfonyl}-2-(3-methyl-4-trifluoromethoxy-phenyl)-1,3,8-triaza-spiro[4.5]dec-1-en-4-one]
21 | 101% | Cc1cc(C(F)(F)F)ccc1C1=NC2(CCN(S(=O)(=O)/C=C/c3c(C)cc(C(=O)N4CCC(O)(CF)CC4)cc3C)CC2)C(=O)N1 [Compound 1259, 8-{(E)-2-[4-(4-fluoromethyl-4-hydroxy-piperidine-1-carbonyl)-2,6-dimethyl-phenyl]-ethenesulfonyl}-2-(2-methyl-4-trifluoromethyl-phenyl)-1,3,8-triaza-spiro[4.5]dec-1-en-4-one]
22 | 84% | O=C1NC(C2CCCCC2)=NC12CCN(S(=O)(=O)CCc1cccc3c1ccn3C[C@H](O)[C@@H](O)COCc1ccccc1)CC2 [Compound 1393, 8-{2-[1-((2S,3S)-4-benzyloxy-2,3-dihydroxy-butyl)-1H-indol-4-yl]-ethanesulfonyl}-2-cyclohexyl-1,3,8-triaza-spiro[4.5]dec-1-en-4-one]
23 | 79% | Cc1cc(N(C)C(N)=O)cc(C)c1CCS(=O)(=O)N1CCC2(CC1)N=C(C(C)(F)F)NC2=O [Compound 1311, 1-(4-{2-[2-(1,1-difluoro-ethyl)-4-oxo-1,3,8-triaza-spiro[4.5]dec-1-ene-8-sulfonyl]-ethyl}-3,5-dimethyl-phenyl)-1-methyl-urea]
